Laboratory results as given in patent US20210205253A1, “Use Of Stearic Acid For Preventing Or Treating Pulmonary Fibrosis” (THE ASAN FOUNDATION, priority 2018, published 2021).

Legend:
[1] = tested on: human pulmonary epithelial cells (BEAS-2B); assay: Cell viability (MTT) of human pulmonary epithelial cells; type: cell-based; conditions: stearic acid 40 uM/mL + TGF-β 5 ng/mL, 24 h, versus TGF-β alone
Protocol: After epithelial cells and fibroblasts were aliquoted into 6-well plates at 2×10^4 cells/well and a stabilization time was imparted for 24 hours, and 15 hours after deficiency, cells were treated with stearic acid (40 uM/mL), TGF-β (5 ng/mL), and stearic acid (40 uM/mL)+TGF-β (5 ng/mL) in this order. After the cells were cultured in an incubator for 24 hours after the treatment, the next-step experiment was performed.
After a 24-hour cell stimulation by the method in Example 1-3 was completed, the medium of epithelial cells and fibroblasts was replaced with a general culture medium, 10 μl of an MTT solution (20 mg/ml) was further added, and then the outside of the plate was wrapped with aluminum foil and cells were cultured in an incubator for 2 hours. […] After 2 hours, cell activation was measured at an absorbance value of 595 nm using an ELISA reader.
For this purpose, after each culture (BEGM(Lonza) in the case of MRC-5, and BMEM (ATCC) in the case of BEAS-2B) of human pulmonary fibroblasts (MRC-5; ATCC® CCL171™) and human pulmonary epithelial cells (BEAS-2B; ATCC® CRL9609™) was treated with stearic acid (40 uM/mL), TGF-β (5 ng/mL; Sigma), or stearic acid (40 uM/mL)+TGF-β (5 ng/mL) by the method described in Example 1-3 for 24 hours, cell viability was measured by the method in Example 1-4. […]

[2] = tested on: human primary fibroblasts; assay: Combined treatment of stearic acid and nintedanib in human primary fibroblasts; type: cell-based; conditions: 40 μM stearic acid single treatment versus TGF single treatment
Protocol: The primary fibroblasts derived from the patients with idiopathic pulmonary fibrosis used in the following experiment were cultured for 7 to 10 days while cutting the lung tissue of the patient into 1×1 mm^2 slices, and then periodically exchanging a cell culture solution (Eagle's minimal essential medium; EMEM) supplemented with 100 unit/ml penicillin, 100 μg/ml streptomycin, and 10% fetal bovine serum (FBS) under conditions of 5% CO2 and 37° C., and cells of passage 2 to 5 were used for the experiment. To verify the anti-fibrotic effect by the combined treatment of stearic acid and nintedanib, which is another therapeutic agent for idiopathic pulmonary fibrosis, human primary fibroblasts were respectively or simultaneously treated with 5 ng/ml TGF-β, 40 μM stearic acid, and 1.5 or 2 μM nintedanib for 24 hours, and then the expression levels of collagen type 1 (COL-1) and α-SMA, which are markers of fibrosis, were measured, respectively.

Question: `CCCCCCCCCCCCCCCCCC(=O)O` [stearic acid] was tested. Which “cell viability of pulmonary epithelial cells” value [1] did it give?
Answer: cell viability increased

Question: What about the “expression level of COL-1” value [2] of the same compound?
Answer: no change

Question: What about the “expression level of α-SMA” value [2] of the same compound?
Answer: no change
